Entries after “also recorded” stand apart in the source; their conditions may differ.
Key:
[1] = Binding to mouse plasma protein
[2] = system: developing vasculature in the zebrafish embryo; test: Vascular development in zebrafish embryos (confocal / time-lapse imaging of transgenic lines); details: 0.1–0.3 μM in swimming water
in vitro = details: zebrafish, zebrafish embryo homogenate (1:20 in MilliQ water)
zebrafish embryos = test: Zebrafish embryo lethality; details: above a concentration of 1 μM
Description: Similarly, DMSO solutions (100 μM) of infigratinib (BGJ398) or vatalanib (PTK/ZK) were diluted in fish water to achieve concentrations of 0.1–0.3 μM. The compounds were added to embryo fish water E3 (5 mM NaCl, 0.17 mM KCl, 0.33 mM CaCl2, 0.33 mM MgSO4, pH 7.0) at 8–10 hpf onwards, before the onset of endothelial cell specification, as previously described.

[3] = %PPB-Mouse (plasma protein binding)

| SMILES | fraction unbound ([1]; %Fu-PPB, free unbound) | fraction unbound [1, 3] | Anastomosis [2] | Blood flow [2] | Cell cycle [2] | Cell junctions [2] | ISV sprouting angiogenesis [2] | ISV-Aorta Connections [2] | Lumenization [2] | Blood flow ([2]; listed as Infigratinib) | Cell cycle ([2]; listed as Infigratinib) | ISV sprouting angiogenesis ([2]; listed as Infigratinib) | fraction unbound at 20 h, 1 μM (in vitro) | Blood flow ([2]; listed as Vatalanib) | ISV sprouting angiogenesis ([2]; listed as Vatalanib) | embryo lethality (zebrafish embryos) |
| --- | --- | --- | --- | --- | --- | --- | --- | --- | --- | --- | --- | --- | --- | --- | --- | --- |
| CCN1CCN(c2ccc(Nc3cc(N(C)C(=O)Nc4c(Cl)c(OC)cc(OC)c4Cl)ncn3)cc2)CC1 [infigratinib] | 0.013 | 0.013 | Moderate/strong defects | mild impediment of blood flow | inhibited cell cycle progression | Mild defects | did not have any effect | Moderate defects | Mild defects | Mild defects | Moderate defects | No defects | 0.0497 ± 0.0082 |  |  |  |
| Clc1ccc(Nc2nnc(Cc3ccncc3)c3ccccc23)cc1 [vatalanib] | 0.041 ± 0.0018 | 0.0413 |  |  |  |  | dramatically reduced | No defects | Moderate defects |  |  |  | 0.0995 ± 0.0131 | dramatic defects in blood vessel function; also recorded: Moderate defects | Strong defects | 80–90% |

— article PMC7824571, “Probing the Effects of the FGFR-Inhibitor Derazantinib on Vascular Development in Zebrafish Embryos” (Pharmaceuticals, 2020)
